# From article PMC10244465, “Native American ataxia medicines rescue ataxia-linked mutant potassium channel activity via binding to the voltage sensing domain” (Nature Communications, 2023)
# Assays:
# Type in all cases: cell-based
# wild-type human Kv1.2 = target: T1, wild-type human Kv1.2 (Homo sapiens, UniProt P16389); assay: Two-electrode voltage clamp of oocytes expressing wild-type Kv1.2
# T1 construct: expressed in transfected cells; host or cells: Xenopus laevis oocytes injected with cRNA (pTLNx vector)
# T1 sequence (P16389 whole entry): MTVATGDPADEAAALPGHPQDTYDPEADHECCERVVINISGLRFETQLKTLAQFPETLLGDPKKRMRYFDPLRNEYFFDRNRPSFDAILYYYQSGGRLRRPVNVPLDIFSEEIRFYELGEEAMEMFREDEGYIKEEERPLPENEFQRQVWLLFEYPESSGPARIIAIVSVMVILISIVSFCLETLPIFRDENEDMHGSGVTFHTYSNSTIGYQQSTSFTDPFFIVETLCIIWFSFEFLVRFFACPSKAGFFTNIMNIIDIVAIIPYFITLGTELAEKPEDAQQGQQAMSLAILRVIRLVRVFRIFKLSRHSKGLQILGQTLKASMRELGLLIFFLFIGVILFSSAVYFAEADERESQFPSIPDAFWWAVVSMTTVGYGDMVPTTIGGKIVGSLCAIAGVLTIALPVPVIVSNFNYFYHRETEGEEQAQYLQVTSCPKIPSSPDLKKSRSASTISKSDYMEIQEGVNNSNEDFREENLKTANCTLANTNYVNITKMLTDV
# Description: We therefore first tested for activity of extracts (diluted 1:50 in bath solution to equal 5 mg plant solid starting material per ml) of each of the three plants on wild-type human Kv1.1 and closely related Kv1.2 expressed in Xenopus laevis oocytes, using manual two-electrode voltage clamp (TEVC). Strikingly, all three extracts altered Kv1 channel activity. […] Pacific ninebark (roots or leaves) had similar effects on Kv1.1 but negligible effects on Kv1.2.
# We purchased live Urtica dioica (Common Nettle) from Crimson Sage Nursery (Orleans, CA, USA), cultivated it in Irvine CA, collected the aerial portions (primarily leaves) and then froze them until the day of extraction. We purchased Physocarpus capitatus (Pacific ninebark) live whole plant from Ozark Wildflower Company (Jasper, AR, USA) and separated the roots and aerial parts before extraction of each. We homogenized plant samples using a bead mill with porcelain beads in batches in 50 ml tubes (Omni International, Kennesaw, GA, United States). We purchased certified organic tree bark powders from Mountain Rose Herbs (Eugene, OR, USA) and dry raw Sophora japonica (fine pellets) from Teriya (People’s Republic of China). We purchased bladderwrack kelp extract capsules from Terra Vita (Brampton, Ontario, Canada) and discarded the outer capsule before extraction. We resuspended all plant powders and homogenates in 80% methanol/20% water (100 ml per 5 g solid) and then incubated for 48 h at room temperature, occasionally inverting the bottles to resuspend the extracts. We next filtered the extracts through Whatman filter paper #1 (Whatman, Maidstone, UK), and then removed the methanol using evaporation in a fume hood for 24–48 h at room temperature. We next centrifuged extracts for 10 min at 15 °C, 4000 RCF to remove the remaining particulate matter, followed by storage at −20 °C. On the day of electrophysiological recording, we thawed the extracts and diluted them 1:50 in bath solution (see below), to equal 5 mg plant solid starting material per ml, immediately before use.
# Wild-type and mutant Kv1 cDNAs were generated (Genscript, Piscataway, NJ) in the pTLNx expression vector. […]
# (§1) We performed TEVC at room temperature using an OC-725C amplifier (Warner Instruments, Hamden, CT) and pClamp10 software (Molecular Devices, Sunnyvale, CA) 2 days after cRNA injection as described in the section above. […] We recorded currents in response to voltage pulses between −80 mV and +40 mV at 10 or 20 mV intervals from a holding potential of −80 mV, to yield current-voltage relationships and examine activation kinetics. To calculate the voltage dependence of activation (V0.5), tail currents were recorded at a voltage pulse of −50 mV immediately following prepulse voltages between −80 mV and +40 mV. […]
# Kv1.1-L328V channels = target: T2, Kv1.1-L328V channels (Homo sapiens, UniProt Q09470, L328V); assay: TEVC of oocytes expressing 100% Kv1.1-L328V; conditions: compound 1 µM
# T2 construct: expressed in transfected cells; host or cells: Xenopus laevis oocytes
# T2 sequence (Q09470 whole entry L328V): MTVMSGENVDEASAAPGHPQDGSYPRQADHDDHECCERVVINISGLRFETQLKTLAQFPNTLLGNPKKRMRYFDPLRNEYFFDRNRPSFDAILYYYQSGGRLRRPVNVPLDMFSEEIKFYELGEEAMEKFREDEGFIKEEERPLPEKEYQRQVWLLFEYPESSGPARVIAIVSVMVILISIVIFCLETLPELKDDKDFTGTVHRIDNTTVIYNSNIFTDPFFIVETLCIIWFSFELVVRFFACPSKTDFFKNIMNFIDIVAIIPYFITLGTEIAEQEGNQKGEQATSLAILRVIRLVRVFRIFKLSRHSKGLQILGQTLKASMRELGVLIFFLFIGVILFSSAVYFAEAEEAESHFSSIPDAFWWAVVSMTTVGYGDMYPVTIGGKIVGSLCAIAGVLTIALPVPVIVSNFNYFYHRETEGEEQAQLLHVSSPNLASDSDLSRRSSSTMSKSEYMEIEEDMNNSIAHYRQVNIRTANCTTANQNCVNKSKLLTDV
# Excerpt: (§2) EA1 mutant G311D is in the S4-5 linker of Kv1.1 (Fig. 5a) and produces a 65% prepulse current reduction both in Kv1.1-G311D and in Kv1.1/Kv1.1-G311D channels[43],[44]; either channel type was minimally responsive to the plant extracts tested (Supplementary Figs. 3 and 4). EA1 mutant L328V (which is associated with tetany and hypomagnesemia) is located in the intracellular end of Kv1.1 S5 (Fig. 5a) and results in complete current loss in a dominant negative manner, i.e., Kv1.1-L328V and Kv1.1/Kv1.1-L328V channels are each nonfunctional. The traditional ataxia remedy plant extracts were unable to rescue Kv1.1-L328V or Kv1.1/Kv1.1-L328V function (Supplementary Figs. 5 and 6). EA1 mutant V408A is in the intracellular-proximal end of Kv1.1 S6 (Fig. 5a) and reduces current, speeds deactivation, and increases C-type inactivation of Kv1.1[46]. Here, Native American ataxia remedy extracts had relatively minor effects on Kv1.1-V408A activity, with nettle and Pacific ninebark (roots or leaves) inducing hyperpolarizing shifts in EM, and Pacific ninebark leaves inducing a negative shift in the voltage dependence of activation, although this was not quantifiable due to the very small tail currents (Supplementary Fig. 7). Effects of the extracts on Kv1.1/Kv1.1-V408A activity were also relatively minor (Supplementary Fig. 8). […]
# as §1, with “mV. We analyzed data using Clampfit (Molecular Devices) and Graphpad Prism software (GraphPad, San Diego, CA, USA), stating values as mean ± SEM.” for “mV.”
# Kv1.1-V408A channels = target: T3, Kv1.1-V408A channels (Homo sapiens, UniProt Q09470, V408A); assay: TEVC of oocytes expressing 100% Kv1.1-V408A; conditions: compound 1 µM
# T3 construct: expressed in transfected cells; host or cells: Xenopus laevis oocytes
# T3 sequence (Q09470 whole entry V408A): as the sequence (Q09470 whole entry L328V) above, with V328L, V408A counted along it
# Excerpt: as §2
# as §1, with “mV. We analyzed data using Clampfit (Molecular Devices) and Graphpad Prism software (GraphPad, San Diego, CA, USA), stating values as mean ± SEM.” for “mV.”
Compound,"effect on Kv1.2 (wild-type human Kv1.2; compound dose response, Fig. 4a)",effect on channel activity (Kv1.1-L328V channels),effect on channel activity (Kv1.1-V408A channels),"EC50 (wild-type human Kv1.2; dose response, Fig. 4, read-out: EC50 for ΔV0.5activation)"
O=C(O)c1cc(O)c(O)c(O)c1 [gallic acid],relatively insensitive,ineffective at rescuing activity,ineffective at rescuing activity,
tannic acid,,does not rescue,subtle improvements in Kv1.1-V408A function but slowed its activation,253 ± 10 nM
